In one data set the test system is CT26.WT. The data set is described as follows: Antiproliferative activity against mouse CT26.WT cells assessed as reduction in cell proliferation incubated for 48 hrs by MTT assay. Format: functional, cell-based. For orientation: Formazan colour is commonly taken as a measure of viable cells.
Data set [1] concerns RKO. Nature of the data set: Antiproliferative activity against human RKO cells assessed as reduction in cell proliferation incubated for 48 hrs by MTT assay. Format: functional, cell-based.
The subject of the next data set is HT-29. Nature of the data set: Antiproliferative activity against human HT-29 cells assessed as reduction in cell proliferation incubated for 48 hrs by MTT assay. Format: functional, cell-based. To be noted: HT-29, 48 h.
The subject of a further data set is HGC-27. Nature of the data set: Antiproliferative activity against human HGC-27 cells assessed as reduction in cell proliferation incubated for 48 hrs by MTT assay. Format: functional, cell-based. Conditions: HGC-27, 48 h.
The next data set has as its system SGC-7901. Nature of the data set: Antiproliferative activity against human SGC-7901 cells assessed as reduction in cell proliferation incubated for 48 hrs by MTT assay. In kind it is functional, cell-based. To be noted: SGC-7901, 48 h.
The target of data set [2] is T1, DNA topoisomerase 1 (Homo sapiens) (UniProt P11387).
T1 sequence (whole entry): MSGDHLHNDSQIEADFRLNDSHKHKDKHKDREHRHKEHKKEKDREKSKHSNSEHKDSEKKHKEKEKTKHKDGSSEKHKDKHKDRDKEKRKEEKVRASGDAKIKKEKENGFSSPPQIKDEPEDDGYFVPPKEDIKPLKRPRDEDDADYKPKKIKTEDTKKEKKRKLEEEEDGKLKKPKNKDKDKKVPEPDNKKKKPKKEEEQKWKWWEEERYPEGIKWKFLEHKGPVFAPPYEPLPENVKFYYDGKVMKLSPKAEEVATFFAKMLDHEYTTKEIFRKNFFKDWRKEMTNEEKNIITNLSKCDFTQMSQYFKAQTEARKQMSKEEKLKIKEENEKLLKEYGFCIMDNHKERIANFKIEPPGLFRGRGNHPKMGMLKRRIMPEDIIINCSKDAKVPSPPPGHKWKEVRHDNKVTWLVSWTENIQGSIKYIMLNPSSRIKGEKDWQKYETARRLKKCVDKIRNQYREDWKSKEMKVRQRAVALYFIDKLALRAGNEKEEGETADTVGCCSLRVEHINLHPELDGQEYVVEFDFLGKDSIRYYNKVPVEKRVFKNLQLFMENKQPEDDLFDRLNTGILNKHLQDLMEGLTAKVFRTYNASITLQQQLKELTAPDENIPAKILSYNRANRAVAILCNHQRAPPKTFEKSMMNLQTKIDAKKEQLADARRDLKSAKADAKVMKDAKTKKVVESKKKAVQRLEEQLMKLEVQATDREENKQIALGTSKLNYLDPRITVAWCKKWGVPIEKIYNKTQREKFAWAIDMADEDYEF
The data set is described as follows: Inhibition of human topoisomerase I assessed as DNA unwinding using DNA pBR322 as substrate at 2 uM incubated for 30 mins by ethidium bromide staining based agarose gel electrophoresis.

Data set [3] deals with RKO. The data set is described as follows: Anti-migration activity against human RKO cells assessed as inhibition of cell migration at 0.37 uM and measured after 24 hrs by wound healing assay. In kind it is functional, cell-based.
Data set [4] relates to RAW264.7. Nature of the data set: Antiinflammatory activity in mouse RAW264.7 cells assessed as reduction in LPS-induced COX-2 expression at 6.6 uM incubated for 1 hrs followed by LPS stimulation and measured after 24 hrs by western blot analysis. Conditions: time 25.0 hrs. In kind it is functional, cell-based.
Data set [5] deals with RAW264.7. The data set is described as follows: Cytotoxicity against mouse RAW264.7 cells assessed as reduction in cell viability at <=11.11 for 24 hrs by MTT assay. In kind it is toxicity, cell-based. To be noted: raw264.7, 24 h.

Activity calls are given as the source filed them. The calls are words filed in the database; no cut-off is given here. A value given as a limit tells only on which side of the number the result lay.

The IC50 is the concentration that inhibits the measured activity by half. Broadly, the inhibition is the drop in the measured response relative to a control, in per cent. For the compound `Cc1c(Cl)cccc1Nc1ccccc1C(=O)NCc1cccc(O)c1`, the IC50 with CT26.WT turned out to be 8.52 µM; in the data set on RKO [1], 6.97 µM; in the data set on HT-29, 33.6 µM; in the data set with HGC-27 it was 2.41 µM; with SGC-7901, 8.92 µM. Besides, in data set [2], the inhibition came out at 37.4%.
Turning to `COc1ccc(NC(=O)c2ccccc2Nc2cccc(Cl)c2C)cc1`, the IC50 with CT26.WT was determined as 11 µM; in the data set on RKO [1], 3.69 µM; with HT-29, 5.97 µM; with HGC-27 it was 2.32 µM; in the data set with SGC-7901, 5.75 µM. The inhibition in data set [2] was 2.55%. The outcome in the data set with RKO [3] and in the data set with RAW264.7 [4] was Active.
Consider `Cc1c(Cl)cccc1Nc1ccccc1C(=O)NCc1ccc(O)c(F)c1`, for which the IC50 in the data set on CT26.WT was determined as 11.6 µM; with RKO [1] it was 5.23 µM; in the data set on HT-29, 26.3 µM; with HGC-27 it was 12 µM; in the data set with SGC-7901 it was 60.8 µM. In addition, the inhibition in data set [2] was 44.7%.
Take `Cc1c(Cl)cccc1N(C)c1ccccc1C(=O)NCc1ccc(O)c(F)c1`: the IC50 with CT26.WT was above 100 µM; in the data set with RKO [1], above 100 µM; in the data set on HT-29, 52.5 µM; in the data set on HGC-27, 88.1 µM; in the data set with SGC-7901, 99.9 µM. The inhibition in [2] is 22.3%.
Turning to `O=C(NCc1ccc(O)cc1)c1ccccc1Nc1cccc(Cl)c1`, the IC50 in the data set with CT26.WT amounted to 38.3 µM; with RKO [1], 24.9 µM; with HT-29, 43.8 µM; in the data set on HGC-27, 26.4 µM; with SGC-7901 it was 32.7 µM. Moreover, in data set [2], the inhibition came to 26.7%.
On to `Cc1c(Cl)cccc1N(C)c1ccccc1C(=O)NCc1ccc(O)cc1`, for which the IC50 is above 100 µM in the data set on CT26.WT; above 100 µM in the data set on RKO [1]; above 100 µM with HT-29; 58 µM with HGC-27; 77.7 µM in the data set with SGC-7901. In data set [2], the inhibition was found to be 25.9%.
In the case of `O=C(Nc1ccc(O)cc1)c1ccccc1Nc1ccccc1`, the IC50 was determined as 52.8 µM in the data set on CT26.WT; 66.7 µM in the data set on RKO [1]; 72.9 µM with HT-29; 74.8 µM with HGC-27; 61.4 µM in the data set on SGC-7901. For the same compound, in data set [2], the inhibition is 8.56%.
On to `Cc1c(Cl)cccc1Nc1ncccc1C(=O)NCc1ccc(O)cc1`, for which the concentration for half-maximal inhibition (IC50) with CT26.WT was above 100 µM; with RKO [1], 23.7 µM; in the data set on HT-29, 47.3 µM; with HGC-27, 50.2 µM; in the data set with SGC-7901, 33.9 µM. For the same compound, the inhibition in data set [2] is 6.87%.
For the compound `Cc1ccc(Cl)c(Nc2ccccc2C(=O)NCc2ccc(O)cc2)c1Cl`, the IC50 in the data set with CT26.WT amounted to 83.4 µM; with RKO [1] it was 28.9 µM; with HT-29 it was 23.7 µM; in the data set on HGC-27 it was 35.2 µM; with SGC-7901, 20.5 µM. Further, in [2], the inhibition turned out to be 5.57%.
Take `O=C(NCc1ccc(O)cc1)c1ccccc1Nc1ccccc1`: the IC50 with CT26.WT is above 100 µM; in the data set with RKO [1], 69.9 µM; in the data set on HT-29 it was 50.9 µM; with HGC-27, 54.8 µM; in the data set on SGC-7901 it was 61 µM. Further, the inhibition in data set [2] amounted to 37.3%.
`OCc1ccc(O)cc1` [PARAHYDROXYBENZYL ALCOHOL]: the IC50 in the data set on CT26.WT, with RKO [1], in the data set on HT-29, in the data set with HGC-27 and in the data set with SGC-7901 was above 100 µM in each case.
Regarding `Cc1c(Cl)cccc1Nc1ccccc1C(=O)NCc1ccc(O)c(O)c1`, the IC50 in the data set with CT26.WT turned out to be 9.64 µM; with RKO [1] it was 59.4 µM; in the data set with HT-29, 19.5 µM; in the data set with HGC-27 it was 16.5 µM; in the data set with SGC-7901, 59.7 µM. Also, the inhibition in data set [2] is 55.3%.
As for `Cc1c(Cl)cccc1Nc1ccccc1C(=O)O` [TOLFENAMIC ACID], the IC50 in the data set with CT26.WT, in the data set with RKO [1], with HT-29, in the data set on HGC-27 and in the data set with SGC-7901 was above 100 µM throughout. Further, in the data set on RAW264.7 [5], the Activity is listed as above 80%.
For `CC[C@@]1(O)C(=O)OCc2c1cc1n(c2=O)Cc2cc3ccccc3nc2-1` [CAMPTOTHECIN], the IC50 was 0.43 µM in the data set with CT26.WT; 0.0617 µM in the data set on RKO [1]; 1.37 µM in the data set with HT-29; 0.166 µM with HGC-27; 5.8 µM in the data set on SGC-7901. Besides, the outcome in the data set on RKO [3] was Active.
For `O=C(NCCCc1ccc(O)cc1)c1ccccc1Nc1ccccc1`, the IC50 with CT26.WT, in the data set on RKO [1], with HT-29, with HGC-27 and in the data set with SGC-7901 was above 100 µM each time. Moreover, the inhibition in [2] stood at 0%.
In the case of `Cc1c(Cl)cccc1Nc1ccccc1C(=O)NCc1ccccc1O`, the IC50 with CT26.WT is above 100 µM; with RKO [1] it was 32.7 µM; in the data set on HT-29, 51.4 µM; in the data set with HGC-27, 46.9 µM; in the data set with SGC-7901 it was 38 µM. Further, the inhibition in [2] is 15.2%.
For the compound `Cc1ccc(Nc2cccc(Cl)c2C)c(C(=O)NCc2ccc(O)c(F)c2)c1`, the IC50 is above 100 µM in the data set with CT26.WT; 50.6 µM in the data set on RKO [1]; 16.2 µM with HT-29; 56.8 µM in the data set with HGC-27; 62.1 µM in the data set with SGC-7901. For the same compound, in data set [2], the inhibition was 19.7%.
Take `O=C(NCCc1ccc(O)cc1)c1ccccc1Nc1ccccc1`: the IC50 in the data set on CT26.WT was 67.8 µM; with RKO [1] it was above 100 µM; in the data set with HT-29, 44.5 µM; with HGC-27, 92.5 µM; in the data set on SGC-7901, 60.4 µM. Also, the inhibition in data set [2] amounted to 13.8%.
`Cc1c(Cl)cccc1Nc1ccccc1C(=O)NCc1ccc(O)cc1`: the IC50 in the data set with CT26.WT amounted to 10.5 µM; with RKO [1], 8.32 µM; with HT-29, 13.5 µM; in the data set on HGC-27, 34.2 µM; in the data set with SGC-7901, 21.1 µM. Besides, the inhibition in data set [2] came out at 35%.
`Cc1c(Cl)cccc1Nc1ccccc1C(=O)NCc1cccc2c1OCO2`: the IC50 in the data set with CT26.WT was above 100 µM; in the data set on RKO [1], 26.9 µM; with HT-29, 22.5 µM; with HGC-27 it was 27.7 µM; in the data set on SGC-7901 it was 41.9 µM. In addition, the inhibition in [2] turned out to be 3.51%.
On to `Cc1c(Cl)cccc1Nc1ccccc1C(=O)NCc1ccc(F)cc1`, for which the IC50 in the data set with CT26.WT was above 100 µM; with RKO [1] it was 62.4 µM; in the data set on HT-29, above 100 µM; in the data set on HGC-27, 46.4 µM; in the data set on SGC-7901 it was 51.8 µM. In addition, in [2], the inhibition was determined as 24.7%.
Consider `Cc1cccc(Nc2ccccc2C(=O)NCc2ccc(O)cc2)c1C`, for which the IC50 was above 100 µM with CT26.WT; 17.4 µM in the data set with RKO [1]; 19.7 µM with HT-29; 33.1 µM in the data set on HGC-27; 22.1 µM in the data set with SGC-7901. Further, the inhibition in [2] was found to be 19.3%.
Take `Cc1c(Cl)cccc1Oc1ccccc1C(=O)NCc1ccc(O)cc1`: the IC50 with CT26.WT was 36.8 µM; in the data set on RKO [1], 101 µM; in the data set with HT-29 it was above 100 µM; in the data set with HGC-27, 59.4 µM; with SGC-7901 it was 90.4 µM. Besides, the inhibition in data set [2] stood at 17.6%.

These data come from ChEMBL document CHEMBL5137070, “N-2-(Phenylamino) Benzamide Derivatives as Dual Inhibitors of COX-2 and Topo I Deter Gastrointestinal Cancers via Targeting Inflammation and Tumor Progression” (J Med Chem, 2022).
